# Earlier results, collected in publication PMC13167888 (Cancer Chemotherapy and Pharmacology, 2026).
# Assays:
# [1] = bosutinib
# BCRP = biological target: T1, BCRP (Homo sapiens, UniProt Q9UNQ0)
# T1 sequence (Q9UNQ0 1-655): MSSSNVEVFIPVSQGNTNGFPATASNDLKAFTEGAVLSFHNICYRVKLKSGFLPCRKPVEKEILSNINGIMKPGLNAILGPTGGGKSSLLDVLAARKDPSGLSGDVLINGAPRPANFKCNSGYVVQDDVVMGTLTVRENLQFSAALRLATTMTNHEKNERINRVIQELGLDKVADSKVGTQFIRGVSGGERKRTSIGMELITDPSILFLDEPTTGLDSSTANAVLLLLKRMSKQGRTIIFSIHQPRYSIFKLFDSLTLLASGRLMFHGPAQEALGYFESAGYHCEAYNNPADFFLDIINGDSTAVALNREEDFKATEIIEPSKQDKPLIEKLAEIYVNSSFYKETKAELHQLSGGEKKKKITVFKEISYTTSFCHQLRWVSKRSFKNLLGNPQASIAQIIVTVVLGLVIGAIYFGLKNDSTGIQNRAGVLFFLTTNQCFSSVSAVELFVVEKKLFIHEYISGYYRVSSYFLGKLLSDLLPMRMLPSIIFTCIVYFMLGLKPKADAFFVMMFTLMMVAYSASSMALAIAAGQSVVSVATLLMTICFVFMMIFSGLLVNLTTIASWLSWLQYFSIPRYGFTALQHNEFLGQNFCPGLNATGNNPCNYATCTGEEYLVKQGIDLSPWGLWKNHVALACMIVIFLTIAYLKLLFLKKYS
Plasma protein binding [1],IC50 (BCRP) [µM],SMILES
94% [37],–,COc1cc(Nc2c(C#N)cnc3cc(OCCCN4CCN(C)CC4)c(OC)cc23)c(Cl)cc1Cl [bosutinib]
–,3.2,CC(C)/N=c1\cc2n(-c3ccc(Cl)cc3)c3ccccc3nc-2cc1Nc1ccc(Cl)cc1 [clofazimine]
